As a reminder, the IC50 is the point on the concentration scale where inhibition reaches its midpoint. A higher IC50 goes with lower potency.

The first assay addresses Gastrin/cholecystokinin type B receptor (Cavia porcellus). In words: The compound was tested for the inhibition of [125I]-Bolton-Hunter CCK-8 binding to cholecystokinin type B receptor in guinea pig cerebral cortical; Not determined.
`CCCCCN(CCCCC)C(=O)[C@@H](Cc1c(Sc2ccccc2[N+](=O)[O-])[nH]c2ccccc12)NC(=O)c1cnc2ccccc2c1`: the IC50 is over 10 µM.

On to `CCCCCN(CCCCC)C(=O)[C@@H](Cc1c[nH]c2ccccc12)NC(=O)/C=C/c1cccnc1`, for which the IC50 is over 10 µM.

The next assay has the same target. Briefly: The compound was tested for the inhibition of [125I]-Bolton-Hunter CCK-8 binding to cholecystokinin type B receptor in guinea pig cerebral cortical.
In turn, `CCCCCN(CCCCC)C(=O)[C@@H](Cc1c[nH]c2ccccc12)NC(=O)c1ccc2cccc(O)c2n1` had an IC50 of over 10 µM.

In turn, `CN(Cc1ccccc1)C(=O)[C@@H](Cc1c[nH]c2ccccc12)NC(=O)c1cnc2ccccc2c1` yielded an IC50 of 10 µM.

Turning to `C[C@H](NC(=O)[C@@H](Cc1c[nH]c2ccccc12)NC(=O)c1cnc2ccccc2c1)c1ccccc1`, the IC50 is over 10 µM.

Compound `CCCCCN(CCCCC)C(=O)[C@@H](CC1C(=O)Nc2ccccc21)NC(=O)c1cnc2ccccc2c1` (some centres not stated) yielded an IC50 of 4.1 µM.

On to `CCCCCN(CCCCC)C(=O)[C@@H](Cc1c[nH]c2ccccc12)NC(=O)c1ccc(Cl)c(Cl)c1`, for which the IC50 is over 10 µM.

As for `CCCCCN(CCCCC)C(=O)[C@@H](Cc1c[nH]c2ccccc12)NC(=O)c1cccc2ccccc12`, the IC50 was 9.7 µM.

Take `CCCCCN(CCCCC)C(=O)[C@@H](Cc1c[nH]c2ccccc12)NC(=O)c1ccc2ccccc2c1`: the IC50 was determined as 11 µM.

`CCCCCN(CCCCC)C(=O)[C@@H](Cc1c[nH]c2ccccc12)NC(=O)c1c[nH]c2ccccc12` returned an IC50 of 20 µM.

Regarding `CCOC(=O)CN(Cc1ccccc1)C(=O)[C@@H](Cc1c[nH]c2ccccc12)NC(=O)c1cnc2ccccc2c1`, the IC50 was found to be 9.2 µM.

`CCCCCN(CCCCC)C(=O)[C@H](Cc1c[nH]c2ccccc12)NC(=O)c1ccc(Cl)c(Cl)c1`: the IC50 is over 10 µM.
